In US9586975B2, “Macrocyclic salt-inducible kinase inhibitors” (ONCODESIGN S.A., priority 2013, dated 2017):
pIC50: −log10 of the molar value. Counter-ions that a name gives are not always drawn.

Legend:
SIK2 recombinant protein = target: T1, SIK2 recombinant protein (Homo sapiens, UniProt Q9H0K1); test: Radiometric protein kinase assay (33PanQinase Activity Assay) for inhibition of SIK2 kinase; format: biochemical; settings: for remaining activity at 0.1 µM / remaining activity at 1 µM: 1 h; for remaining activity at 0.1 µM: compound at 0.1 μM; for remaining activity at 1 µM: compound at 1 μM; for pIC50: ATP 1.0 μM, SIK2 0.3 nM, substrate RBER-Chktide
T1 construct: purchased Invitrogen Corporation
Method: The inhibition of SIK2 kinase was assessed using SIK2 recombinant protein in an in vitro peptide-based kinase assay.
A radiometric protein kinase assay (^33PanQinase® Activity Assay) is used for measuring the kinase activity. All assays are performed in 96-well FlashPlates™ from Perkin Elmer in a 50 μl reaction volume. The reaction cocktail is […] in 4 steps in the following order: • 10 μl of non-radioactive ATP solution (in H2O) • 25 μl of assay buffer/[γ-^33P]-ATP mixture • 5 μl of test sample in 10% DMSO • 10 μl of enzyme/substrate mixture
The assay for SIK2 contains 70 mM HEPES-NaOH pH 7.5, 3 mM MgCl2, 3 mM MnCl2, 3 μM Na-orthovanadate, 1.2 mM DTT, 50 μg/ml PEG20000, ATP (1.0 μM), [γ-^33P]-ATP (approx. 5×10^05 cpm per well), protein kinase SIK2 (0.3 nM) and substrate (RBER-Chktide), 2.0 μg/50 μl).
The kinase is obtained from Invitrogen Corporation.
The reaction cocktails were incubated at 30° C. for 60 minutes. The reaction was stopped with 50 μl of 2% (v/v) H3PO4, plates were aspirated and washed two times with 200 μl 0.9% (w/v) NaCl. Incorporation of ^33Pi (counting of “cpm”) was determined with a microplate scintillation counter.
The compounds are dissolved to 10 mM in DMSO. Where needed, solutions are sonicated in a bath sonicator.
Table 4 provides the pIC50 values and % Remaining activity values at two concentrations (1 μM and 0.1 μM) of the compounds according to the invention, obtained using the above mentioned kinase assay.

T1 sequence (Q9H0K1 whole entry): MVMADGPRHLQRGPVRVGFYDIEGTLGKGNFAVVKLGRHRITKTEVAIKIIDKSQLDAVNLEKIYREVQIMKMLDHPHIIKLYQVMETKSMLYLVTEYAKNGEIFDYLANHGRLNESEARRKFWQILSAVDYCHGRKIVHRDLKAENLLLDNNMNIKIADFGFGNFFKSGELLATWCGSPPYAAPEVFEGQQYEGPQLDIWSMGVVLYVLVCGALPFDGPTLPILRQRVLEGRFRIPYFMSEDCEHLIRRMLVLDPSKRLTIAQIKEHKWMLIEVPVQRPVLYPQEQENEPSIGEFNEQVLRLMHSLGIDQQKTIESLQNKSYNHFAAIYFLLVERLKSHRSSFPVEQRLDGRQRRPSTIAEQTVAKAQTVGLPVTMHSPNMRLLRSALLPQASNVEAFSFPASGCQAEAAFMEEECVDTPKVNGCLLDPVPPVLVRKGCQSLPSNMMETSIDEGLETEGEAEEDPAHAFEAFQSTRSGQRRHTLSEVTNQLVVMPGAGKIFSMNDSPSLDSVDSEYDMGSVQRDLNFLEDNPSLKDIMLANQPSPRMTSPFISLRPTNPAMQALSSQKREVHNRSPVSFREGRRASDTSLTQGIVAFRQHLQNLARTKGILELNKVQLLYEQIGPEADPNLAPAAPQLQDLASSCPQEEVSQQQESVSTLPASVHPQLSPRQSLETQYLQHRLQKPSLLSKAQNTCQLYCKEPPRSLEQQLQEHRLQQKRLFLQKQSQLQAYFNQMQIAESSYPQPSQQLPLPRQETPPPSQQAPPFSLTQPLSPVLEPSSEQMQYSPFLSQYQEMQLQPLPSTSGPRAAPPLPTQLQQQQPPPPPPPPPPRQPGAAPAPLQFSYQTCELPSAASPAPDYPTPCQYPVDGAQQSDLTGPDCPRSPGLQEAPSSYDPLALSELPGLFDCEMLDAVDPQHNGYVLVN

| Structure (SMILES) | melting point | remaining activity at 0.1 µM (SIK2 recombinant protein) | remaining activity at 1 µM (SIK2 recombinant protein) | pIC50 (SIK2 recombinant protein) |
| --- | --- | --- | --- | --- |
| CN(C)CCNC(=O)N1CCNCCOc2cccc(c2)-c2cnn3ccc1nc23 [Compound A11] | > 300 °C | < 50% | < 50% | > 7.00 |
| COCc1cc2cc(c1)-c1cnn3ccc(nc13)NCCN(C(=O)C1CC1)CCO2 [Compound H79] | > 300 °C |  |  | > 7.00 |
| Fc1cc2cc(c1)-c1cnn3ccc(nc13)NCCN(C1CCNCC1)CCO2 [Compound H83] | 246.2 °C | < 50% | < 50% | > 7.00 |
| NCCN1CCNc2ccn3ncc(c3n2)-c2cccc(c2)OCC1 [Compound H84] | > 300 °C | < 50% | < 50% | > 7.00 |
| c1cc2cc(c1)-c1cnc3ccc(nn13)SCCNCCCN2 [Compound H85] | 173.1 °C | < 50% | < 50% | > 7.00 |
| CNCCN1CCOc2cccc(c2)-c2cnn3ccc(nc23)OCC1 [Compound H86] |  | < 50% | < 50% | > 7.00 |
| c1cc2cc(c1)-c1cnn3ccc(nc13)OCCCNCCO2 [Compound H87] |  | > 50% | < 50% | > 7.00 |
| CN1CCCNc2ccn3ncc(c3n2)-c2cc(cc(C(F)(F)F)c2)OCC1 [Compound H91] |  | < 50% | < 50% | > 7.00 |
| Cc1cc2cc(c1)-c1cnn3ccc(nc13)NCCCNCCO2 [Compound H92] | > 300 °C | < 50% | < 50% | > 7.00 |
| Cc1cc2cc(c1)-c1cnn3ccc(nc13)NCCCN(C)CCO2 [Compound H93] |  | < 50% | < 50% | > 7.00 |
| CCN1CCCNc2ccn3ncc(c3n2)-c2cc(C)cc(c2)OCC1 [Compound H95] |  | < 50% | < 50% | > 7.00 |
| OCc1cc2cc(c1)-c1cnn3ccc(nc13)NCCCNCCO2 [Compound H96] |  | < 50% | < 50% | > 7.00 |
| OCc1cc2cc(c1)-c1cnn3ccc(nc13)NCCCNCCN2 [Compound H100] |  | < 50% | < 50% | > 7.00 |

Second part, the compound after the results:

| melting point | remaining activity at 0.1 µM (SIK2 recombinant protein) | remaining activity at 1 µM (SIK2 recombinant protein) | pIC50 (SIK2 recombinant protein) | Structure (SMILES) |
| --- | --- | --- | --- | --- |
| 247 °C |  |  |  | CNCCN1CCOc2cccc(c2)-c2cnn3ccc(nc23)OCC1 (as salt: HCl) [Compound H86] |
| 273.3 °C |  |  |  | c1cc2cc(c1)-c1cnn3ccc(nc13)OCCCNCCCN2 (as salt: HCl) [Compound H89] |
|  | < 50% | < 50% |  | O=C(C1CC1)N1CCNc2ccn3ncc(c3n2)-c2cc(CO)cc(c2)OCC1 [Compound B75] |
|  | < 50% | < 50% | > 7.00 | COCc1cc2cc(c1)-c1cnn3ccc(nc13)NCCNCCO2 [Compound H78] |
|  |  |  | > 7.00 | OCc1cc2cc(c1)-c1cnn3ccc(nc13)NCCNCCO2 [Compound H80] |
| 179.1 °C | < 50% | < 50% | > 7.00 | OCc1cc2cc(c1)-c1cnn3ccc(nc13)NCCN(CC1CC1)CCO2 [Compound H81] |
| > 300 °C | < 50% | < 50% | > 7.00 | Cc1ccc2cc1OCCNCCNc1ccn3ncc-2c3n1 [Compound H82] |
|  | < 50% | < 50% | > 7.00 | c1cc2cc(c1)-c1cnn3ccc(nc13)NCCCNCCCO2 [Compound H88] |
|  | > 50% | < 50% | > 7.00 | c1cc2cc(c1)-c1cnn3ccc(nc13)OCCCNCCCN2 [Compound H89] |
| > 300 °C | < 50% | < 50% | > 7.00 | FC(F)(F)c1cc2cc(c1)-c1cnn3ccc(nc13)NCCCNCCO2 [Compound H90] |
| 288 °C |  |  | > 7.00 | CN1CCCOc2cccc(c2)-c2cnn3ccc(nc23)NCC1 [Compound H94] |
| 285.2 °C | < 50% | < 50% | > 7.00 | OCCN1CCNc2ccn3ncc(c3n2)-c2cc(Cl)cc(c2)OCC1 [Compound H97] |
| 178.1 °C | < 50% | < 50% | 6.00 to 7.00 | c1cc2cc(c1)-c1cnn3ccc(nc13)SCCNCCCO2 [Compound H98] |
| 125.6 °C |  |  | 6.00 to 7.00 | c1cc2cc(c1)-c1cnc3ccc(nn13)SCCNCCCO2 [Compound H99] |
